In publication PMC8704315, “Lichen-Derived Compounds and Extracts as Biologically Active Substances with Anticancer and Neuroprotective Properties” (Pharmaceuticals, 2021):
Values joined by “and” are separate entries in the source; they are usually repeats but may differ in a detail not shown here. Equal values may be shown once. “Also recorded” adds a separate entry of the source. Read-outs that look alike come from different tables or passages of the source.

Key:
AChE = AChE (Homo sapiens, UniProt P22303); assay type: biochemical; conditions: sample 142.9 μg/mL in the reaction mixture
AChE, sequence (P22303 32-614): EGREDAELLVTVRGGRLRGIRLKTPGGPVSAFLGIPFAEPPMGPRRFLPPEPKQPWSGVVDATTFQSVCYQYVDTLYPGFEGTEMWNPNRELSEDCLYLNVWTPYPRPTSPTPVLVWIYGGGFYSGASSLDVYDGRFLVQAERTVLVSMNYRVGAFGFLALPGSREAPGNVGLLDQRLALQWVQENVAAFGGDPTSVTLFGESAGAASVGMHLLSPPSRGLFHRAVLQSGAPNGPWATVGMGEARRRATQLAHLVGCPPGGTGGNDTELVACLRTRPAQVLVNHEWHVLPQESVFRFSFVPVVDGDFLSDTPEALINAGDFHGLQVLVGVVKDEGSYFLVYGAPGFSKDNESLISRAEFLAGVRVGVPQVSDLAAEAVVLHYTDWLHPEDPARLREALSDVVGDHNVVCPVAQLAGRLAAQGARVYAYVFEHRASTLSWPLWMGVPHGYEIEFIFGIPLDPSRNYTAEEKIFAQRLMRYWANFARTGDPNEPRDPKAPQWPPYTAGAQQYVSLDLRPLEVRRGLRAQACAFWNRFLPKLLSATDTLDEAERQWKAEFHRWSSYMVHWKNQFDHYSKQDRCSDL
Procedure: Ellman’s colorimetric method was used with modifications described previously. Tested sample (10 μL) at concentration 5 mg/mL was mixed with 20 μL of AChE (or BChE) solution (0.28 U/mL) and completed after 5 min with 35 μL of ATChI (or BTCh) (1.5 mmol/L), 175 μL of 0.3 mmol/L DTNB (containing 10 mmol/L NaCl and 2 mmol/L MgCl2) and 110 μL with Tris-HCl buffer (50 mmol/L, pH 8.0). Samples containing 10 μL of Tris-HCl buffer instead of the studied sample were run in the same way (“blank” samples). The increase in the absorbance due to the spontaneous hydrolysis of the substrate was monitored using “blank” samples containing ATCh (or BTCh) and DTNB completed to 350 μL with Tris-HCl buffer. All samples were incubated at 22 °C (30 min; incubation time was determined after optimization experiments, details not shown), and the absorbance was measured (405 nm, 96-well microplate reader, Tecan Sunrise, Grödig, Austria). The “false-positive” effect of studied compounds was measured according to Rhee et al. with minor modifications, as described previously: after mixing of the substrate with the enzyme and buffer, the “false-positive” sample was left for incubation. Then, a studied sample and DTNB were added, followed by an immediate measurement of the absorbance.
Reference cholinesterase inhibitors were used for the calculations of results (eserine, neostigmine, magniflorine, rivastigmine and donepezil). For this purpose, for each compound, 16 dilutions in pure DMSO were prepared (2.57–41.14 μg/mL). These solutions (10 μL) were tested as described above and calibration curves were produced.
Each sample was analyzed in at least eight repeats, and all solutions used in a set of analyses were prepared in the same buffer. For calculations, the background of the sample (10 μL mixed with 340 μL of Tris buffer) was measured at 405 nm and subtracted during calculations. Then, the absorbance of the test sample was subtracted from the absorbance of the “blank” sample.

T98G cell line = experiment: MTT cell viability assay, 48 h, T98G; assay type: cell-based, Human; conditions: for IC50: Homo sapiens, T98G, read-out: IC50 T98G
Procedure: Stock solutions in dimethylsulfoxide DMSO (Sigma-Aldrich, St. Louis, MO, USA), (10 mM for compounds and 10 mg/mL for extracts) were prepared and stored at −20 °C. For the experiments, the stock solutions were diluted ex tempore to the final selected concentration with complete cell culture medium.
Human glioblastoma A-172 and T98G cell lines were purchased from the American Type Culture Collection (ATCC, Manassas, VA, USA), and the European Collection of Authenticated Cell Cultures (ECACC, Salisbury, UK), respectively. The cells were grown at 37 °C in 95% humidified and 5% CO2 atmosphere. Media recommended by the provider were used to cultivate the cells: ATCC-formulated Dulbecco’s modified Eagle’s medium (DMEM) (Sigma Aldrich, St. Louis, MO, USA), and ATCC-formulated Eagle’s Minimum Essential Medium (EMEM) (Sigma-Aldrich, St. Louis, MO, USA) were used for A-172 and T98G cells, respectively. Moreover, the media were supplemented with 10% fetal bovine serum (FBS) (Biowest, France) and 1% antibiotics (penicillin and streptomycin) solution (Sigma-Aldrich, St. Louis, MO, USA). The medium for the T98G cell line was additionally supplemented with 2 mM glutamine, 1% non-essential amino acids, and 1% sodium pyruvate (all obtained from Sigma Aldrich, St. Louis, MO, USA). For the experiments, the amount of FBS was reduced to 5%. All experiments were carried out 24 h after the cells were seeded on 96-well plates.
The effect of the tested compounds and extracts on GBM cell viability was assessed by measuring the ability of cells to metabolize 3-(4,5-dimethylthiazol-2-yl)-2,5-diphenyl-tetrazolium bromide (MTT), as previously described. In brief, 1 × 10^4 cells per well were seeded on 96-well plates. After 24 h incubation, they were treated with varying concentrations of lichen-derived compounds (1, 5, 10, 25, 50 and 100 µM) and extracts (1, 5, 10, 25, 50 and 100 µg/mL). Cells treated with medium containing the respective concentrations of DMSO (Sigma-Aldrich, St. Louis, MO, USA) were used as a control. After 48 h incubation the cells were washed with phosphate-buffered saline (PBS) buffer and incubated for 4 h in the presence of PBS containing 0.5 mg/mL MTT salt (Merck, Darmstadt, Germany). Next, the formazan crystals were dissolved in acidic isopropanol. In order to enhance dissolution of formazan crystals the plates were shaken on the orbital shaker for 30 min. Finally, the absorbance was measured at λ = 570 nm and λ = 690 nm on the microplate reader (Tecan Infinite M200). All the experiments were repeated three times with at least four measurements per assay.

[1] = tested on: Superoxide dismutase (SOD); experiment: Effect on superoxide dismutase activity; assay type: biochemical; conditions: 537.6 μg/mL reaction mixture, ± SEM, n = 3
Procedure: Sample (50 µL, 5 mg/mL of pure DMSO) was mixed with 10 μL SOD (0.24 U), 160 μL nitrobluetatrazolium solution (0.0025 M), 205 μLphosphate buffer (0.2 M, pH 7.5), 30 μL xanthine (150 mM in 1 M NaOH) and 0.01 mL xanthine oxidase (0.065 U, Sigma Aldrich X4875). The change in the absorbance at 550 nm was measured in tested samples vs. controls without the studied sample after […] of incubation and the effect on the enzyme was calculated using the equation [74]: (3) Inhibition [%]=100 – 100×(Abs. 30 min – Abs. 0 min)/(Abs. control. 30 min – Abs. control 0 min)

[2] = target: T1, indoleamine 2,3-dioxygenases 1 (IDO1) (Homo sapiens, UniProt P14902); experiment: Universal IDO1/IDO2/TDO Inhibitor Screening Assay Kit, IDO1; assay type: biochemical; conditions: ± SEM, three measurements
T1 construct: purchased BPS Bioscience, Inc. (San Diego, CA, USA)
T1 sequence (P14902 whole entry, species assumed): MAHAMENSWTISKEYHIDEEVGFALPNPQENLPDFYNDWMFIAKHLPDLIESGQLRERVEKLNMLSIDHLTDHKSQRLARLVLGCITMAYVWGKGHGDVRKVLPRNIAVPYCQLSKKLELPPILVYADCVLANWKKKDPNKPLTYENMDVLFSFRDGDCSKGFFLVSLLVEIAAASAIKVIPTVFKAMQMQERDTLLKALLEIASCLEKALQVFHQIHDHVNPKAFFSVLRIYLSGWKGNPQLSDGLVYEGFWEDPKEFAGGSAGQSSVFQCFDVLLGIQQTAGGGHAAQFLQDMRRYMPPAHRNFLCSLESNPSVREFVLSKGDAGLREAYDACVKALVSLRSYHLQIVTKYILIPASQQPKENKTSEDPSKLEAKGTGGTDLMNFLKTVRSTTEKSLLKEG

[3] = 100 µg/mL, read-out: Inhibition (%) IDO1

Row | Compound | Equivalent Reference Concentration, Donepezil, AChE (AChE) | Equivalent Reference Concentration, Eserine, AChE (AChE) | Equivalent Reference Concentration, Magniflorine, AChE (AChE) | Equivalent Reference Concentration, Neostygmine, AChE (AChE) | Equivalent Reference Concentration, Rivastigmine, AChE (AChE) | IC50 (T98G cell line; 48 h) | SOD Inhibition (%) [1] | SOD Inhibition (%) ([1]; listed as (−)-usnic acid) | Inhibition (%) IDO1 ([2]; 100 µg/mL) | inhibition at 100 µg/mL ([2]; read-out: Inhibition (%) IDO1, 100 µg/mL) | IC50 (T98G cell line; 48 h treatment, MTT, ± SEM) | reduction in cell viability T98G (T98G cell line; highest tested concentration (100 µM), 48 h MTT) | SOD Inhibition (%) ([1]; listed as evernic acid) | inhibition at 100 µg/mL [2, 3] | SOD Inhibition (%) ([1]; listed as salazinic acid)
1 | CC(=O)C1=C(O)C=C2Oc3c(C(C)=O)c(O)c(C)c(O)c3C2(C)C1=O (single isomer, unassigned; (-)) [(−)-Usnic acid, (−)-usnic acid] | - | - | - | - | - | 13 µg/mL and 37.8 µM | 19.6 ± 0.6% | ~ 20% | 21.6 ± 0.9% | 21.6 ± 0.85% |  |  |  |  | 
2 | COc1cc(C)c(C(=O)Oc2cc(C)c(C(=O)O)c(O)c2)c(O)c1 [Evernic acid, evernic acid] | - | - | - | - | - |  | 21.2 ± 0.0% |  | 32.8 ± 1.9% |  | > 33.2 µg/mL and > 100 µM | ~ 20% | ~ 20% | 32.8 ± 1.93% | 
3 | Cc1cc(O)c(C=O)c2c1C(=O)Oc1c(CO)c(O)c3c(c1O2)C(O)OC3=O (stereo not shown) [Salazinic acid, salazinic acid] | - | - | - | - | - |  | 19.4 ± 0.3% |  | did not exhibit any inhibition effect; also recorded: not active |  | > 38.8 µg/mL and > 100 µM |  |  | < 10% | ~ 20%
